Measurements published in the supplement of paper PMC10307832.

Legend:
Assay in all cases: relative viability (nuclei count vs DMSO), 5 days (fraction); higher = more cells survive
IU1-47 + Lapatinib = compound: CC1=CC(=C(N1C2=CC=C(C=C2)Cl)C)C(=O)CN3CCCCC3 [IU1-47] + CS(=O)(=O)CCNCc1ccc(-c2ccc3ncnc(Nc4ccc(OCc5cccc(F)c5)c(Cl)c4)c3c2)o1 [Lapatinib] (partner 2 µM)
Method in brief: (§1)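 Lung cancer cell lines, seeded in 1536-well plates, were treated the following day by pin tool with a single drug or with five library-drug doses (not always all listed) in √10 steps on top of a fixed anchor-drug dose. Cells were fixed and nuclei stained in one step after 5 days, and nuclei were counted. Relative viability is the nuclei count for treated wells divided by that for vehicle wells, reported as medians of duplicate plates.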

IU1-47 + Bortezomib = compound: CC1=CC(=C(N1C2=CC=C(C=C2)Cl)C)C(=O)CN3CCCCC3 [IU1-47] + CC(C)C[C@H](NC(=O)[C@H](Cc1ccccc1)NC(=O)c1cnccn1)B(O)O [Bortezomib] (partner 0.002 µM)
Method in brief: as §1

IU1-47 + Tozasertib = compound: CC1=CC(=C(N1C2=CC=C(C=C2)Cl)C)C(=O)CN3CCCCC3 [IU1-47] + Cc1cc(Nc2cc(N3CCN(C)CC3)nc(Sc3ccc(NC(=O)C4CC4)cc3)n2)n[nH]1 [Tozasertib] (partner 0.1 µM)
Method in brief: as §1

IU1-47 + Olaparib = compound: CC1=CC(=C(N1C2=CC=C(C=C2)Cl)C)C(=O)CN3CCCCC3 [IU1-47] + O=C(c1cc(Cc2n[nH]c(=O)c3ccccc23)ccc1F)N1CCN(C(=O)C2CC2)CC1 [Olaparib] (partner 8 µM)
Method in brief: as §1

Row | Cell Line | relative viability (IU1-47 + Lapatinib; first compound 0.08 µM) | relative viability (IU1-47 + Lapatinib; first compound 0.253 µM) | relative viability (IU1-47 + Lapatinib; first compound 0.8 µM) | relative viability (IU1-47 + Lapatinib; first compound 2.53 µM) | relative viability (IU1-47 + Lapatinib; first compound 8 µM) | relative viability (IU1-47 + Bortezomib; first compound 0.08 µM) | relative viability (IU1-47 + Bortezomib; first compound 0.253 µM) | relative viability (IU1-47 + Bortezomib; first compound 0.8 µM) | relative viability (IU1-47 + Bortezomib; first compound 2.53 µM) | relative viability (IU1-47 + Bortezomib; first compound 8 µM) | relative viability (IU1-47 + Tozasertib; first compound 0.08 µM) | relative viability (IU1-47 + Tozasertib; first compound 0.253 µM) | relative viability (IU1-47 + Tozasertib; first compound 0.8 µM) | relative viability (IU1-47 + Tozasertib; first compound 2.53 µM) | relative viability (IU1-47 + Tozasertib; first compound 8 µM) | relative viability (IU1-47 + Olaparib; first compound 0.08 µM) | relative viability (IU1-47 + Olaparib; first compound 0.253 µM) | relative viability (IU1-47 + Olaparib; first compound 0.8 µM) | relative viability (IU1-47 + Olaparib; first compound 2.53 µM) | relative viability (IU1-47 + Olaparib; first compound 8 µM)
1 | BEN | 0.723 | 0.816 | 1.09 | 0.617 | 0.633 | 0.755 | 0.906 | 1.07 | 0.848 | 0.641 | 0.499 | 0.444 | 0.49 | 0.631 | 0.506 | 1.1 | 1.06 | 1.12 | 1.11 | 0.933
2 | EMC-BAC-2 | 0.947 | 0.944 | 0.966 | 0.955 | 0.879 | 1.09 | 1.07 | 1.04 | 1.15 | 1.04 | 0.279 | 0.305 | 0.285 | 0.305 | 0.271 | 0.507 | 0.548 | 0.402 | 0.534 | 0.533
3 | LU99A | 0.933 | 1.07 | 1.16 | 1.02 | 1 | 1.12 | 1.23 | 1.06 | 1.12 | 1.09 | 0.283 | 0.266 | 0.282 | 0.314 | 0.231 | 0.233 | 0.273 | 0.272 | 0.265 | 0.245
4 | NCI-H2170 | 0.286 | 0.297 | 0.289 | 0.301 | 0.263 | – | – | – | – | – | 0.714 | 0.786 | 0.762 | 0.892 | 0.676 | 0.705 | 0.652 | 0.634 | 0.693 | 0.652
5 | NCI-H1299 | 0.962 | 0.982 | 0.975 | 1.02 | 0.934 | 1.08 | 1.06 | 1.09 | 0.989 | 0.945 | – | – | – | – | – | 0.982 | 1.03 | 0.958 | 0.923 | 0.959
6 | EBC-1 | 0.214 | 0.216 | 0.218 | 0.226 | 0.205 | 0.516 | 0.528 | 0.535 | 0.715 | 0.542 | – | – | – | – | – | 0.685 | 0.691 | 0.696 | 0.663 | 0.766
7 | NCI-H2342 | – | – | – | – | – | – | – | – | – | – | 0.493 | 0.608 | 0.602 | 0.512 | 0.594 | 0.49 | 0.432 | 0.463 | 0.425 | 0.418
8 | NCI-H1792 | 0.923 | 0.999 | 0.988 | 0.956 | 0.514 | 1.03 | 1.07 | 1.1 | 0.879 | 0.662 | – | – | – | – | – | 0.659 | 0.481 | 0.365 | 0.384 | 0.215
9 | ChaGo-K-1 | – | – | – | – | – | 0.953 | 0.971 | 0.952 | 1.27 | 0.682 | 0.203 | 0.216 | 0.263 | 0.215 | 0.228 | 0.433 | 0.393 | 0.435 | 0.452 | 0.362
10 | LK-2 | 1.15 | 1.26 | 0.963 | 0.703 | 0.517 | – | – | – | – | – | 0.163 | 0.168 | 0.155 | 0.168 | 0.166 | 0.935 | 0.958 | 0.802 | 0.745 | 0.641
11 | NCI-H1944 | 0.835 | 0.845 | 0.779 | – | 0.801 | – | – | – | – | – | 0.231 | 0.248 | 0.265 | 0.283 | 0.265 | 0.433 | 0.409 | 0.398 | 0.356 | 0.427
12 | NCI-H1793 | 0.525 | 0.594 | 0.648 | – | 0.566 | – | – | – | – | – | 0.346 | 0.319 | 0.296 | – | 0.299 | 0.861 | – | 1.1 | 1.01 | 0.87
13 | A549 | 0.987 | 1.1 | 0.92 | 1.08 | 0.858 | – | – | – | – | – | – | – | – | – | – | 0.467 | 0.28 | 0.324 | – | 0.371
14 | NCI-H358 | 0.445 | 0.381 | 0.481 | – | 0.456 | – | – | – | – | – | 0.089 | 0.103 | 0.0989 | 0.0928 | 0.0979 | 0.704 | 0.784 | 0.55 | 0.705 | 0.436
15 | NCI-H1563 | 0.935 | 0.914 | 1.25 | 0.793 | 0.73 | 0.822 | 0.831 | 0.885 | 0.775 | 0.552 | – | – | – | – | – | – | – | – | – | –
16 | NCI-H1395 | 0.968 | 0.96 | 1.08 | – | 0.892 | – | – | – | – | – | 0.739 | 0.692 | 0.835 | 0.8 | 0.718 | 0.46 | 0.432 | 0.44 | 0.452 | 0.412
17 | SW 900 | – | – | – | – | – | – | – | – | – | – | 0.512 | 0.54 | 0.615 | 0.439 | 0.469 | 0.859 | – | 1.19 | 1.11 | 0.976
18 | IA-LM | – | 1.08 | 0.832 | 0.997 | 0.664 | 0.917 | 0.899 | 0.904 | 0.782 | 0.824 | – | – | – | – | – | 0.748 | 0.863 | 0.958 | 0.979 | 0.903
19 | NCI-H1703 | 1.21 | 1.2 | 1.03 | 1.39 | 0.96 | 0.278 | 0.354 | 0.273 | 0.403 | 0.504 | – | – | – | – | – | 0.387 | 0.39 | 0.447 | 0.355 | 0.487
20 | NCI-H441 | – | – | – | – | – | 0.732 | 0.574 | 0.489 | 0.561 | 0.56 | 0.824 | 0.713 | 0.667 | 0.662 | 0.544 | 0.61 | 0.591 | 0.511 | 0.543 | 0.539
21 | LCLC-103H | – | – | – | – | – | 1.2 | 1.14 | 1.1 | 1.12 | 1.08 | 0.576 | 0.586 | 0.531 | 0.503 | 0.451 | 0.794 | 0.831 | 0.779 | 0.77 | 0.737
22 | NCI-H1648 | – | – | – | – | – | – | – | – | – | – | 0.518 | 0.569 | 0.476 | 0.338 | 0.43 | 1.16 | 1.17 | 0.813 | 0.656 | 0.577
